“And” between values parts separate entries of the source, which are not always exact repeats. Identical values can stand only once.
Key:
[1] = Initial solubility test of DMT fumarate in aqueous vehicles; format: physicochemical
Experimental: Solubility of DMT fumarate was assessed at a concentration of 10 mg/ml in a small selection of aqueous vehicles (water, saline, 20 mM phosphate buffer and a combination of buffer and saline).
Phosphate buffer (100 ml) was prepared using 219.53 mg of the dibasic form [HPO4][Na]2 with 183.7 mg of the monobasic form [H2PO4]Na, both dihydrate salts. The solution was adjusted to pH 7.0 with addition of NaOH (1 M) and then made to volume. 10 ml of a 10 mg/ml formulation was prepared.
To prepare this, sodium chloride was first dissolved in water to produce the saline solution (100 ml, 0.45% w/v). The phosphate salts, in the quantities described above, were then dissolved in the saline solution and the pH was adjusted using NaOH (1 M).
The pH of these solutions was in the range 3-4.

[2] = Plasma IAA metabolite levels after oral dosing in rats; settings: for Estimated IAA Concentration / Estimated IAA Concentration, Mean: rat plasma, PO Dose (25 mg/kg); for Estimated IAA Concentration: individual animal; for Estimated IAA Concentration, Mean: mean of animals
[3] = cited from earlier work
[4] = test system: human liver mitochondrial fraction; experiment: Intrinsic clearance and half-life in human liver mitochondrial fraction; format: in vitro ADME; settings: 0.5 mg/mL human liver mitochondrial fraction, 1 μM test compounds; for Half-life (min) R1: 5 μM Serotonin and Benzylamine controls, replicate 1; for Half-life (min) R3: replicate 3; for Half-life (min) R4: replicate 4
Source text: (§1) Use of Liver Mitochondrial Fraction to Model Human Metabolism of Deuterated DMT

[5] = Plasma pharmacokinetics of test compound after oral dosing in rats; settings: rat plasma; for Determined Concentration of test compound in plasma / Determined Concentration of test compound in plasma, Mean: oral dosing; for Determined Concentration of test compound in plasma: individual animal; for Determined Concentration of test compound in plasma, Mean: mean of 3 animals
[6] = Solubility of DMT fumarate at different pH values in Britton-Robinson buffer; settings: before pH adjustment
[7] = Intrinsic clearance and half-life in human liver mitochondrial fraction; format: in vitro ADME; settings: 0.5 mg/mL human liver mitochondrial fraction; 1 μM test compounds, 5 μM controls; mean of replicates
Source text: as §1

CN(C)CCc1c[nH]c2ccccc12.O=C(O)/C=C/C(=O)O [SPL026, N,N-dimethyltryptamine (DMT) fumarate salt]
pH of these solutions ([1]; 10 mg/ml in aqueous vehicles): 3-4 | Solubility at a concentration of 10 mg/ml in aqueous vehicles ([1]; water, saline, 20 mM phosphate buffer, buffer and saline): readily soluble | Mean IAA Cmax ([2]; rat plasma IAA (semi quantified) after 25 mg/kg PO of the compound): 9.204 ng/mL | Mean IAA tmax ([2]; rat plasma IAA after 25 mg/kg PO of the compound): 30 min | Estimated IAA Concentration ([2]; 1 min): BLQ | Estimated IAA Concentration, Mean ([2]; 1 min): BLQ | Estimated IAA Concentration ([2]; 5 min, fumarate salt, 25 mg/kg): 0.549 ng/mL and 1.33 ng/mL and 1.64 ng/mL | Estimated IAA Concentration, Mean ([2]; 5 min): 1.171 ng/mL | Estimated IAA Concentration ([2]; 10 min, fumarate salt, 25 mg/kg): 1.08 ng/mL and 2.58 ng/mL and 4.39 ng/mL | Estimated IAA Concentration, Mean ([2]; 10 min): 2.683 ng/mL | Estimated IAA Concentration ([2]; 15 min, fumarate salt, 25 mg/kg): 1.82 ng/mL and 5.55 ng/mL and 6.09 ng/mL | Estimated IAA Concentration, Mean ([2]; 15 min): 4.487 ng/mL | Estimated IAA Concentration ([2]; 30 min, fumarate salt, 25 mg/kg): 7.08 ng/mL and 11.8 ng/mL and 8.88 ng/mL | Estimated IAA Concentration, Mean ([2]; 30 min): 9.245 ng/mL | Estimated IAA Concentration ([2]; 45 min, fumarate salt, 25 mg/kg): 5.10 ng/mL and 6.44 ng/mL and 9.98 ng/mL | Estimated IAA Concentration, Mean ([2]; 45 min): 7.174 ng/mL | Estimated IAA Concentration ([2]; 60 min, fumarate salt, 25 mg/kg): 6.18 ng/mL and 9.74 ng/mL and 11.7 ng/mL | Estimated IAA Concentration, Mean ([2]; 60 min): 9.204 ng/mL | Estimated IAA Concentration ([2]; 120 min, fumarate salt, 25 mg/kg): 7.40 ng/mL and 7.70 ng/mL and 8.67 ng/mL | Estimated IAA Concentration, Mean ([2]; 120 min): 7.924 ng/mL | Estimated IAA Concentration ([2]; 180 min, fumarate salt, 25 mg/kg): 4.34 ng/mL and 2.53 ng/mL and 3.08 ng/mL | Estimated IAA Concentration, Mean ([2]; 180 min): 3.316 ng/mL | Estimated IAA Concentration ([2]; Predose): BLQ | Estimated IAA Concentration, Mean ([2]; Predose): BLQ | predicted half-life in humans ([3]; humans): 5 min | duration of action ([3]; psychedelic effect): under 20 minutes | Half-life (min) R1 [4]: 8.8 min | Half-life (min) Mean ([4]; 5 μM controls, mean of replicates): 8.3 min | Half-life (min) R3 ([4]; 5 μM controls): 7.6 min | Half-life (min) R4 ([4]; 5 μM controls): 8.3 min | mean Cmax ([5]; 25 mg/kg single oral gavage): 27.9 ng/mL | Determined Concentration of test compound in plasma ([5]; 1 min, fumarate salt): BLQ (Below the lower limit of quantification 0.310 ng/mL) (2×) and 0.391 ng/mL | Determined Concentration of test compound in plasma, Mean ([5]; 1 min): <0.3 ng/mL | Determined Concentration of test compound in plasma ([5]; 5 min, fumarate salt): BLQ (Below the lower limit of quantification 0.310 ng/mL) (2×) and 0.590 ng/mL | Determined Concentration of test compound in plasma, Mean ([5]; 5 min): <0.4 ng/mL | Determined Concentration of test compound in plasma ([5]; 10 min, fumarate salt): BLQ (Below the lower limit of quantification 0.310 ng/mL) and 4.06 ng/mL and 20.7 ng/mL | Determined Concentration of test compound in plasma, Mean ([5]; 10 min): <8.4 ng/mL | Determined Concentration of test compound in plasma ([5]; 15 min, fumarate salt): 0.763 ng/mL and 19.9 ng/mL and 25.7 ng/mL | Determined Concentration of test compound in plasma, Mean ([5]; 15 min): 15.5 ng/mL | Determined Concentration of test compound in plasma ([5]; 30 min, fumarate salt): 7.77 ng/mL and 25.2 ng/mL and 29.5 ng/mL | Determined Concentration of test compound in plasma, Mean ([5]; 30 min): 20.8 ng/mL | Determined Concentration of test compound in plasma ([5]; 45 min, fumarate salt): 18.0 ng/mL and 18.5 ng/mL and 28.6 ng/mL | Determined Concentration of test compound in plasma, Mean ([5]; 45 min): 21.7 ng/mL | Determined Concentration of test compound in plasma ([5]; 60 min, fumarate salt): 16.9 ng/mL and 31.6 ng/mL and 34.1 ng/mL | Determined Concentration of test compound in plasma, Mean ([5]; 60 min): 27.5 ng/mL | Determined Concentration of test compound in plasma ([5]; 120 min, fumarate salt): 13.7 ng/mL and 11.7 ng/mL and 16.9 ng/mL | Determined Concentration of test compound in plasma, Mean ([5]; 120 min): 14.1 ng/mL | Determined Concentration of test compound in plasma ([5]; 180 min, fumarate salt): 5.83 ng/mL and 2.57 ng/mL and 2.45 ng/mL | Determined Concentration of test compound in plasma, Mean ([5]; 180 min): 3.6 ng/mL | Determined Concentration of test compound in plasma ([5]; Predose): BLQ (Below the lower limit of quantification 0.310 ng/mL) | Determined Concentration of test compound in plasma, Mean ([5]; Predose): BLQ (Below the lower limit of quantification 0.310 ng/mL) | dissolution at 20 mg/ml in Britton-Robinson buffer solution [6]: very soluble

NCCc1c[nH]c2ccc(O)cc12 [Serotonin, reference compound]
half-life at 5 μM [7]: 9 min | Half-life (min) R1 [4]: 9.3 min | Half-life (min) R3 ([4]; 5 μM controls): 9.1 min | Half-life (min) R4 ([4]; 5 μM controls): 8.5 min

Reference: US12042564B2, “Therapeutic solid dosage forms” (CYBIN UK LTD, priority 2020, dated 2024)
